# From US9273095B2, “Antibiotic peptide and preparation method therefor and application therefor” (priority 2011, dated 2016)
# Read-outs that look alike come from different tables or passages of the source. Non-standard residues stand in square brackets, D forms with d. Residues, ends and D or L forms follow the SMILES beside them.
# Experiments:
# Type in all cases: cell-based
# candida krusei = test: microbe, parasite or virus in culture
# aspergillus flavous = test: microbe, parasite or virus in culture
# In short: (§1)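 Broth dilution in RPMI-1640 with PL-13 peptide diluted 10-fold from stock; inoculum 1-3×10^3 CFU/ml in the test. Strains activated at 60% humidity, 25 °C for aspergillus or 37 °C for candida; living and blank control wells included.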
# aspergillus fumigatus = test: microbe, parasite or virus in culture
# In short: as §1
# candida albicans = test: microbe, parasite or virus in culture
# In short: as §1
# candida glabrata = test: microbe, parasite or virus in culture
# In short: as §1
# candida tropicalis = test: microbe, parasite or virus in culture
# In short: as §1
# [1] = system: Acinetobacter calcoaceticus; test: microbe, parasite or virus in culture; details: Acinetobacter calcoaceticus25001
# In short: (§2)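 Drug was serially double-diluted in MH broth, mixed into molten MH agar to final levels of 0.03 to 128 μg/ml, and allowed to solidify. Bacteria (10^4CFU/point) were then spotted on and the plates kept 18 hours at 35° C.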
# Enterobacter aerogenes = test: microbe, parasite or virus in culture; details: Enterobacter aerogenes 45102
# In short: as §2
# Enterobacter cloacae = test: microbe, parasite or virus in culture; details: Enterobacter cloacae 45301
# In short: as §2
# Escherichia coli = test: microbe, parasite or virus in culture
# In short: (§3)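 Two-fold agar dilution method on MH agar (0.03–128 μg/ml final), 10^4CFU/point, 18 hours at 35° C.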
# Feilaoti citrobacter = test: microbe, parasite or virus in culture; details: Feilaoti citrobacter 48001
# In short: as §2
# Proteus vulgaris = test: microbe, parasite or virus in culture; details: Proteus vulgaris 56
# In short: as §2
# Pseudomonas aeruginosa = test: microbe, parasite or virus in culture
# In short: as §3
# Salmonella typhimurium = test: microbe, parasite or virus in culture; details: Salmonella typhimurium
# In short: as §2
# Serratia marcescens = test: microbe, parasite or virus in culture; details: Serratia marcescens 41002
# In short: as §2
# Shigella flexneri = test: microbe, parasite or virus in culture
# In short: as §2
# Shigella sonnei = test: microbe, parasite or virus in culture; details: Shigella sonnei strains 51592
# In short: as §2
# Shigella = test: microbe, parasite or virus in culture
# In short: as §2
# Staphylococcus aureus = test: microbe, parasite or virus in culture
# In short: as §3
# [2] = system: Staphylococcus epidermidis; test: microbe, parasite or virus in culture
# In short: as §3
# Typhoid bacillus H901 = test: microbe, parasite or virus in culture
# In short: as §2
# klebsiella pneumoniae = test: microbe, parasite or virus in culture
# In short: as §3
# Enterococcus faecalis = test: organism not typed; details: read-out: MIC
# Description: The experimental strains are 37 standard strains preserved in lab and clinical isolated bacteria, including drug-resistant bacteria and quality-control bacteria selecting Staphylococcus aureus ATCC29213, Enterococcus faecalis ATCC29212, Escherichia coli ATCC25922, Pseudomonas aeruginosa ATCC27853 and klebsiella pneumoniae ATCC700603.
# (1) Sensitivity test is conducted with two-fold agar dilution method and Denlay multipoint inoculator. Test bacteria are cultured with nutrient broth and brain heart infusion.
# (2) The drug is double diluted into different concentration with MH broth after dissolved and then placed in the plate respectively.
# (4) After solidification of the culture medium in the plate, test bacteria (10^4CFU/point) are inoculated by multipoint inoculator and cultured for 18 hours at constant 35° C. Then observe the results.
# [3] = JLC 30506 aspergillus fumigatus
# [4] = JLC 30883 aspergillus fumigatus
# [5] = Pseudomonas aeruginosa TCC27853
# [6] = strain 17 (listed under Pseudomonas aeruginosa)
# [7] = 08-49(MSSA) Meticillin susceptible staphylococcus aureus
# [8] = 08-52(MRSA) Methicillin-resistant staphylococcus aureus
# [9] = Staphylococcus aureus ATCC25923
# [10] = Staphylococcus aureus ATCC29213
# [11] = strain 15 (listed under Staphylococcus aureus)
# [12] = 08-17 (MSSE) Meticillin susceptible staphylococcus epidermidis
# [13] = 08-18 (MRSE) Methicillin-resistant staphylococcus epidermidis
# [14] = (MRSE) Methicillin-resistant Staphylococcus epidermidis ATCC12228
# [15] = 08-2 (ESBLs) (listed under klebsiella pneumoniae)
# [16] = klebsiella pneumoniae ATCC700603
# [17] = strain 7 (listed under klebsiella pneumoniae)
# [18] = 06-71 (VRE) Vancomycin-resistant Enterococci
# [19] = Enterococcus faecalis ATCC29212
# [20] = HH22* (AMEs) Aminoglycoside-modifying enzyme
# [21] = strain 06-7 (listed under Enterococcus faecalis)
molecule,measurement,setting,value
CC[C@@H](C)[C@@H](NC(=O)[C@@H](CCCCN)NC(=O)[C@@H](CO)NC(=O)[C@@H](Cc1ccccc1)NC(=O)[C@@H](CC(C)C)NC(=O)[C@@H](CCCCN)NC(=O)[C@@H](CCC(=O)O)NC(=O)[C@@H](CC(C)C)NC(=O)[C@@H](CCCNC(=N)N)NC(=O)[C@@H](CCCCN)NC(=O)[C@@H](Cc1ccccc1)NC(C)=O)C(=O)N[C@H](Cc1c[nH]c2ccccc12)C(=O)N[C@H](CC(N)=O)C(=O)N[C@H](Cc1c[nH]c2ccccc12)C(=O)N[C@H](CCCCN)C(N)=O [PL-17] (Ac-[dF][dK][dR][dL][dE][dK][dL][dF][dS][dK][dI][dW][dN][dW][dK]-NH2),Minimal inhibitory concentration,candida krusei; JLC 30366 candida krusei,8 µg/mL
same,Minimal inhibitory concentration,candida krusei; JLC 30383 candida krusei,8 µg/mL
same,Minimal inhibitory concentration,aspergillus flavous; JLC 30784 aspergillus flavous,>64 µg/mL
same,Minimal inhibitory concentration,aspergillus flavous; JLC 40437 aspergillus flavous,>64 µg/mL
same,Minimal inhibitory concentration,aspergillus fumigatus; [3],32 µg/mL
same,Minimal inhibitory concentration,aspergillus fumigatus; [4],32 µg/mL
same,Minimal inhibitory concentration,candida albicans; JLC 33659 candida albicans,4 µg/mL
same,Minimal inhibitory concentration,candida albicans; JLC 33660 candida albicans,4 µg/mL
same,Minimal inhibitory concentration,candida glabrata; JLC 30367 candida glabrata,4 µg/mL
same,Minimal inhibitory concentration,candida glabrata; JLC 31512 candida glabrata,8 µg/mL
same,Minimal inhibitory concentration,candida tropicalis; JLC 31379 candida tropicalis,2 µg/mL
same,Minimal inhibitory concentration,candida tropicalis; JLC 31384 candida tropicalis,2 µg/mL
same,MIC,[1],1.3 µM
same,MIC,Enterobacter aerogenes,1.3 µM
same,MIC,Enterobacter cloacae,1.3 µM
same,MIC,Escherichia coli; 272(TEM-88),0.3 µM
same,MIC,Escherichia coli; 274 (TEM-15),0.3 µM
same,MIC,Escherichia coli; 276 (TEM-52),0.7 µM
same,MIC,Feilaoti citrobacter,2.7 µM
same,MIC,Proteus vulgaris,5.3 µM
same,MIC,Pseudomonas aeruginosa; [5],1.3 µM
same,MIC,Pseudomonas aeruginosa; [6],2.7 µM
same,MIC,Salmonella typhimurium,1.3 µM
same,MIC,Serratia marcescens,1.3 µM
same,MIC,Shigella flexneri,0.3 µM
same,MIC,Shigella sonnei,0.3 µM
same,MIC,Shigella,0.3 µM
same,MIC,Staphylococcus aureus; [7],0.7 µM
same,MIC,Staphylococcus aureus; [8],5.3 µM
same,MIC,Staphylococcus aureus; [9],0.3 µM
same,MIC,Staphylococcus aureus; [10],0.3 µM
same,MIC,Staphylococcus aureus; [11],0.3 µM
same,MIC,[2]; [12],1.0 µM
same,MIC,[2]; [13],1.0 µM
same,MIC,[2]; [14],1.0 µM
same,MIC,Typhoid bacillus H901,0.7 µM
same,MIC,klebsiella pneumoniae; [15],0.3 µM
same,MIC,klebsiella pneumoniae; [16],2.7 µM
same,MIC,klebsiella pneumoniae; [17],0.3 µM
same,MIC,Enterococcus faecalis; [18],1.7 µM
same,MIC,Enterococcus faecalis; [19],5.3 µM
same,MIC,Enterococcus faecalis; [20],10.7 µM
same,MIC,Enterococcus faecalis; [21],5.3 µM
Ac-FKRLEKLFSKIWNWK-NH2 [PL-12],Minimal inhibitory concentration,candida krusei; JLC 30366 candida krusei,8 µg/mL
same,Minimal inhibitory concentration,candida krusei; JLC 30383 candida krusei,16 µg/mL
same,Minimal inhibitory concentration,aspergillus flavous; JLC 30784 aspergillus flavous,>64 µg/mL
same,Minimal inhibitory concentration,aspergillus flavous; JLC 40437 aspergillus flavous,>64 µg/mL
same,Minimal inhibitory concentration,aspergillus fumigatus; [3],32 µg/mL
same,Minimal inhibitory concentration,aspergillus fumigatus; [4],32 µg/mL
same,Minimal inhibitory concentration,candida albicans; JLC 33659 candida albicans,16 µg/mL
same,Minimal inhibitory concentration,candida albicans; JLC 33660 candida albicans,16 µg/mL
same,Minimal inhibitory concentration,candida glabrata; JLC 30367 candida glabrata,32 µg/mL
same,Minimal inhibitory concentration,candida glabrata; JLC 31512 candida glabrata,32 µg/mL
same,Minimal inhibitory concentration,candida tropicalis; JLC 31379 candida tropicalis,4 µg/mL
same,Minimal inhibitory concentration,candida tropicalis; JLC 31384 candida tropicalis,8 µg/mL
same,MIC,[1],0.03 µM
same,MIC,Enterobacter aerogenes,0.03 µM
same,MIC,Enterobacter cloacae,0.3 µM
same,MIC,Escherichia coli; 272(TEM-88),0.7 µM
same,MIC,Escherichia coli; 274 (TEM-15),1.3 µM
same,MIC,Escherichia coli; 276 (TEM-52),1.3 µM
same,MIC,Feilaoti citrobacter,5.3 µM
same,MIC,Proteus vulgaris,0.3 µM
same,MIC,Pseudomonas aeruginosa; [5],5.3 µM
same,MIC,Pseudomonas aeruginosa; [6],2.7 µM
same,MIC,Salmonella typhimurium,5.3 µM
same,MIC,Serratia marcescens,0.03 µM
same,MIC,Shigella flexneri,2.7 µM
same,MIC,Shigella sonnei,2.7 µM
same,MIC,Shigella,1.7 µM
same,MIC,Staphylococcus aureus; [7],0.7 µM
same,MIC,Staphylococcus aureus; [8],1.3 µM
same,MIC,Staphylococcus aureus; [9],1.3 µM
same,MIC,Staphylococcus aureus; [10],1.3 µM
same,MIC,Staphylococcus aureus; [11],1.3 µM
same,MIC,[2]; [12],2.7 µM
same,MIC,[2]; [13],1.3 µM
same,MIC,[2]; [14],1.3 µM
same,MIC,Typhoid bacillus H901,5.3 µM
same,MIC,klebsiella pneumoniae; [15],5.3 µM
same,MIC,klebsiella pneumoniae; [16],2.7 µM
same,MIC,klebsiella pneumoniae; [17],5.3 µM
same,MIC,Enterococcus faecalis; [18],0.3 µM
same,MIC,Enterococcus faecalis; [19],1.3 µM
same,MIC,Enterococcus faecalis; [20],0.3 µM
same,MIC,Enterococcus faecalis; [21],5.3 µM
